# According to patent publication US11214803B2, “Modulators of YAP1 expression” (Ionis Pharmaceuticals, Inc., priority 2019, dated 2022):
# Strand notation (5' to 3'): a small letter for the sugar, then the base; units joined by * are phosphorothioate-linked, units joined directly phosphodiester-linked; [ ] holds rarer units or linkages, { } end groups; capitals alone tell only the bases. k = constrained ethyl (cEt); [5mC] = 5-methylcytosine; d = 2'-deoxy (DNA)
# Tested on: Yap1 mRNA
# Assay: Antisense inhibition of human Yap1 in A-431 cells by cEt gapmers, single dose (Example 4, RTS4814)
# Type: cell-based
# In short: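 Values are % UTC: Yap1 mRNA by quantitative RT-PCR, normalized to RIBOGREEN total RNA. Cells were exposed ~48 h to 2,000 nM oligonucleotide without transfection. Oligonucleotides were 16-nucleoside gapmers with three cEt nucleosides per wing, ten-deoxy gap, P=S linkages throughout.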
# [1] = Table 14, A-431 cells, 5,000 cells per well, free uptake, 2,000 nM, approximately 48 hours, RTS4814, normalized to RIBOGREEN, Yap1 mRNA relative to untreated control, * = targets amplicon region of primer probe set
# [2] = Table 17, A-431 cells, 5,000 cells per well, free uptake, 2,000 nM, approximately 48 hours, RTS4814, normalized to RIBOGREEN, Yap1 mRNA relative to untreated control cells
# [3] = Yap1 mRNA remaining as percent of untreated control, 3-10-3 cEt gapmers, A-431 cells, Table 36
# [4] = Yap1 mRNA remaining as percent of untreated control, 3-10-3 cEt gapmers, A-431 cells, Table 37
# [5] = Table 15, A-431 cells, 5,000 cells per well, free uptake, 2,000 nM, approximately 48 hours, RTS4814, normalized to RIBOGREEN, Yap1 mRNA relative to untreated control, * = targets amplicon region of primer probe set
# [6] = Table 16, A-431 cells, 5,000 cells per well, free uptake, 2,000 nM, approximately 48 hours, RTS4814, normalized to RIBOGREEN, Yap1 mRNA relative to untreated control cells
substance,measurement,setting,value
1074272 (antisense kT*kA*kT*dA*dG*dT*dA*dA*dA*dT*dT*dT*d[5mC]*kT*k[5mC]*k[5mC]) [Compound 1074272],YAP1 (% UTC),[1],16 % UTC
1076035 (kG*kT*kA*dA*dT*dT*dA*dG*dA*dA*dA*d[5mC]*dT*kT*kG*kG; antisense) [Compound 1076035],YAP1 (% UTC),[2],9 % UTC
1074806 (kT*kT*kG*dT*dA*dG*d[5mC]*dA*dA*dA*dG*dT*d[5mC]*kA*k[5mC]*kT; antisense) [compound 1074806],YAP1 (% UTC),[3],8 % UTC
1075223 (kG*kT*kT*dA*dA*dA*dA*dG*dT*dG*dA*dA*d[5mC]*k[5mC]*k[5mC]*kA; antisense) [compound 1075223],YAP1 (% UTC),[4],19 % UTC
1075606 (antisense kG*k[5mC]*kT*dA*dA*dA*d[5mC]*d[5mC]*dT*dA*d[5mC]*dA*d[5mC]*kG*k[5mC]*kT) [compound 1075606],YAP1 (% UTC),[3],82 % UTC
1075107 (antisense kT*kA*kA*dA*dA*dA*d[5mC]*dA*dT*dT*dG*dT*dG*kG*k[5mC]*k[5mC]) [Compound 1075107],YAP1 (% UTC),[2],114 % UTC
1076097 (k[5mC]*kA*kA*dT*dA*dA*dT*dA*dA*dA*d[5mC]*dG*dA*kT*kT*k[5mC]; antisense) [Compound 1076097],YAP1 (% UTC),[5],70 % UTC
1074647 (antisense k[5mC]*kA*kA*dA*dT*dT*dG*dA*dA*dG*dG*dG*d[5mC]*k[5mC]*kA*kA) [compound 1074647],YAP1 (% UTC),[4],27 % UTC
1075190 (kT*kA*kT*d[5mC]*dA*dA*dG*dG*dA*dT*dT*d[5mC]*dA*kG*kT*kA; antisense) [compound 1075190],YAP1 (% UTC),[3],45 % UTC
1074400 (antisense kG*kA*kT*dT*dT*dA*dG*dA*dA*dT*dT*d[5mC]*dA*kG*kT*k[5mC]) [Compound 1074400],YAP1 (% UTC),[1],42 % UTC
1076256 (kT*kT*kA*dT*dT*dT*dA*dG*dG*d[5mC]*d[5mC]*d[5mC]*d[5mC]*kA*kT*kA; antisense) [Compound 1076256],YAP1 (% UTC),[1],4 % UTC
1075287 (antisense kT*kA*kT*dT*dA*d[5mC]*dG*dG*dA*d[5mC]*dA*dG*dA*kA*kG*kT) [compound 1075287],YAP1 (% UTC),[4],58 % UTC
1075232 (antisense kA*kT*kT*dT*dA*dT*d[5mC]*dA*dG*d[5mC]*d[5mC]*dA*dT*kT*kG*kT) [Compound 1075232],YAP1 (% UTC),[1],13 % UTC
1075264 (antisense kG*kA*kA*dT*dA*dA*dT*dA*dT*dG*d[5mC]*dA*dG*kA*kA*k[5mC]) [Compound 1075264],YAP1 (% UTC),[1],53 % UTC
1076311 (kT*kA*kT*dA*dA*d[5mC]*d[5mC]*d[5mC]*dT*dA*dT*dA*d[5mC]*kT*kT*kG; antisense) [compound 1076311],YAP1 (% UTC),[4],56 % UTC
1075811 (kA*kT*kT*dG*dT*dA*dG*d[5mC]*dA*dA*dT*dA*dG*kA*kG*kT; antisense) [Compound 1075811],YAP1 (% UTC),[2],10 % UTC
1075042 (antisense kT*kT*kA*dA*dA*dA*dG*dG*dT*dT*dT*dG*dG*k[5mC]*kA*k[5mC]) [Compound 1075042],YAP1 (% UTC),[6],17 % UTC
1074870 (kG*kT*kA*dA*dG*dT*dA*d[5mC]*d[5mC]*dT*dA*dA*d[5mC]*kA*kT*kA; antisense) [compound 1074870],YAP1 (% UTC),[3],20 % UTC
1075971 (kT*kA*kT*dT*dA*dA*d[5mC]*dA*dT*dA*d[5mC]*d[5mC]*dT*k[5mC]*kA*kT; antisense) [Compound 1075971],YAP1 (% UTC),[2],28 % UTC
1076182 (k[5mC]*kT*kA*dT*dA*dA*dT*dT*dA*dG*d[5mC]*d[5mC]*dA*kA*k[5mC]*k[5mC]; antisense) [compound 1076182],YAP1 (% UTC),[3],15 % UTC
1074498 (kA*k[5mC]*kA*dA*dT*dA*dA*d[5mC]*d[5mC]*dA*dT*d[5mC]*d[5mC]*k[5mC]*kA*kA; antisense) [Compound 1074498],YAP1 (% UTC),[6],17 % UTC
1075446 (antisense k[5mC]*kT*kA*dT*dA*dA*dA*dT*d[5mC]*d[5mC]*dT*d[5mC]*dA*kT*kG*kT) [compound 1075446],YAP1 (% UTC),[3],87 % UTC
1074146 (antisense kG*kA*kA*dG*d[5mC]*dG*dG*d[5mC]*dG*dA*d[5mC]*dG*dG*k[5mC]*kT*kG) [Compound 1074146],YAP1 (% UTC),[6],91 % UTC
1076087 (k[5mC]*kA*kA*dA*d[5mC]*dT*dA*dA*dT*dA*dG*dG*d[5mC]*k[5mC]*kA*kT; antisense) [compound 1076087],YAP1 (% UTC),[4],10 % UTC
1076480 (antisense kG*kT*kA*dA*dA*dT*dA*dT*d[5mC]*d[5mC]*dA*dT*dT*kA*k[5mC]*k[5mC]) [Compound 1076480],YAP1 (% UTC),[1],72 % UTC
1075841 (kA*kT*kT*dT*dA*dG*dG*dT*dA*d[5mC]*dT*d[5mC]*dA*kG*kT*kA; antisense) [Compound 1075841],YAP1 (% UTC),[5],27 % UTC
1074466 (kA*k[5mC]*k[5mC]*dG*dA*d[5mC]*d[5mC]*d[5mC]*dT*dG*d[5mC]*d[5mC]*dA*kA*kA*kA; antisense) [Compound 1074466],YAP1 (% UTC),[6],32 % UTC
1075607 (antisense kA*kA*kA*dA*d[5mC]*dG*dG*dT*dG*dT*dG*dA*dA*kG*kA*kA) [compound 1075607],YAP1 (% UTC),[4],45 % UTC
1075168 (antisense k[5mC]*kA*kT*d[5mC]*dA*dA*dA*dA*dT*dT*dT*d[5mC]*dA*k[5mC]*kG*kA) [Compound 1075168],YAP1 (% UTC),[1],49 % UTC
1074743 (kG*kA*kA*dA*dG*dG*dA*d[5mC]*dT*d[5mC]*dT*dT*dA*kG*kG*kT; antisense) [compound 1074743],YAP1 (% UTC),[4],16 % UTC
1076503 (kA*kA*kT*dT*dA*d[5mC]*d[5mC]*d[5mC]*d[5mC]*dT*dG*dT*dG*kA*kG*kG; antisense) [compound 1076503],YAP1 (% UTC),[4],77 % UTC
1074593 (antisense kA*kG*kG*dA*dG*d[5mC]*dA*dA*dG*dT*d[5mC]*dT*dT*kG*kT*kA) [Compound 1074593],YAP1 (% UTC),[5],6 % UTC
1076033 (k[5mC]*kA*kT*dT*dA*dG*dT*dA*dG*dG*dT*dA*dT*kT*kT*k[5mC]; antisense) [Compound 1076033],YAP1 (% UTC),[5],8 % UTC
1076547 (antisense kG*kA*k[5mC]*d[5mC]*dA*dA*d[5mC]*d[5mC]*dT*d[5mC]*d[5mC]*d[5mC]*dT*k[5mC]*kA*kG) [Compound 1076547],YAP1 (% UTC),[2],89 % UTC
1076150 (kA*kT*kT*dT*dA*dT*dT*dA*dA*d[5mC]*dT*d[5mC]*dA*k[5mC]*kG*kA; antisense) [compound 1076150],YAP1 (% UTC),[3],11 % UTC
1075714 (kA*kA*kT*dT*dA*d[5mC]*dA*dA*dT*d[5mC]*dA*dA*d[5mC]*k[5mC]*kT*kT; antisense) [Compound 1075714],YAP1 (% UTC),[6],42 % UTC
1076001 (kA*k[5mC]*kT*d[5mC]*dA*dA*dG*dG*dA*dA*d[5mC]*d[5mC]*dA*kT*kT*kT; antisense) [Compound 1076001],YAP1 (% UTC),[5],24 % UTC
1074885 (kA*kG*kG*dG*d[5mC]*dT*dA*dA*d[5mC]*dT*d[5mC]*d[5mC]*dT*kG*k[5mC]*k[5mC]; antisense) [compound 1074885],YAP1 (% UTC),"table after Table 37, headed TABLE 32 (gapmers targeting SEQ ID NO.: 3), A-431 cells, free uptake, 2,000 nM, approximately 48 hours, RTS4814",115 % UTC
1075139 (antisense k[5mC]*k[5mC]*k[5mC]*dA*dA*dA*dT*dA*dA*dT*dA*dG*dA*kT*kA*k[5mC]) [Compound 1075139],YAP1 (% UTC),[2],65 % UTC
1074144 (antisense kA*kG*k[5mC]*dG*dG*d[5mC]*dG*dA*d[5mC]*dG*dG*d[5mC]*dT*kG*k[5mC]*kG) [Compound 1074144],YAP1 (% UTC),[1],92 % UTC
1076129 (k[5mC]*kA*kT*dA*dA*dA*d[5mC]*d[5mC]*dT*dT*dA*dG*dT*k[5mC]*k[5mC]*kT; antisense) [Compound 1076129],YAP1 (% UTC),[5],26 % UTC
1076514 (antisense k[5mC]*k[5mC]*kT*dT*dA*dG*dG*dA*dG*dA*dT*dG*d[5mC]*kA*k[5mC]*k[5mC]) [Compound 1076514],YAP1 (% UTC),[6],18 % UTC
1075265 (antisense kT*k[5mC]*kT*dG*dA*dA*dT*dA*dA*dT*dA*dT*dG*k[5mC]*kA*kG) [Compound 1075265],YAP1 (% UTC),[5],44 % UTC
1075351 (antisense kA*kG*kA*dT*dT*dA*dA*dA*dG*d[5mC]*dT*d[5mC]*dA*kT*kT*kG) [compound 1075351],YAP1 (% UTC),[4],38 % UTC
1074752 (k[5mC]*kA*kT*dT*dA*dG*dG*dA*dA*d[5mC]*dA*dA*dG*kG*kA*k[5mC]; antisense) [Compound 1074752],YAP1 (% UTC),[1],10 % UTC
1075170 (antisense kA*k[5mC]*kT*dA*dA*dA*dA*dT*d[5mC]*d[5mC]*d[5mC]*d[5mC]*dA*kA*kG*kG) [Compound 1075170],YAP1 (% UTC),[6],94 % UTC
1075329 (kA*kG*kG*dG*dA*dA*dA*dA*d[5mC]*dT*dT*dT*dG*k[5mC]*kA*k[5mC]; antisense) [Compound 1075329],YAP1 (% UTC),[5],26 % UTC
1075926 (antisense kG*kT*kA*dG*dA*dA*d[5mC]*d[5mC]*dT*dA*dT*dA*dT*kT*kA*kT) [compound 1075926],YAP1 (% UTC),[3],25 % UTC
1076118 (k[5mC]*kG*kT*dA*dA*dA*dT*dT*dG*dA*dG*dG*d[5mC]*k[5mC]*k[5mC]*kA; antisense) [compound 1076118],YAP1 (% UTC),[3],45 % UTC
